Measurements as given in patent US8791132B2, “Compounds and methods for treatment of hypertension” (Medivation Technologies, Inc., priority 2011, dated 2014).
“And” between values parts separate entries of the source, which are not always exact repeats. Equal entries are not always repeated. Where two headings read alike, the source gives them in different places.

How the values were obtained:
[1] = biological target: T1, human recombinant adrenergic α2B receptor (Homo sapiens, UniProt P18089); experiment: Radioligand binding, adrenergic α2B ([3H]Rauwolscine); conditions: for Percentage inhibition of ligand binding, Adrenergic α2B / Percentage inhibition of ligand binding, Adrenergic α2B (0.03 μM): 0.03 µM
T1 construct: expressed in transfected cells; host or cells: CHO-K1
T1 sequence (P18089 1-450): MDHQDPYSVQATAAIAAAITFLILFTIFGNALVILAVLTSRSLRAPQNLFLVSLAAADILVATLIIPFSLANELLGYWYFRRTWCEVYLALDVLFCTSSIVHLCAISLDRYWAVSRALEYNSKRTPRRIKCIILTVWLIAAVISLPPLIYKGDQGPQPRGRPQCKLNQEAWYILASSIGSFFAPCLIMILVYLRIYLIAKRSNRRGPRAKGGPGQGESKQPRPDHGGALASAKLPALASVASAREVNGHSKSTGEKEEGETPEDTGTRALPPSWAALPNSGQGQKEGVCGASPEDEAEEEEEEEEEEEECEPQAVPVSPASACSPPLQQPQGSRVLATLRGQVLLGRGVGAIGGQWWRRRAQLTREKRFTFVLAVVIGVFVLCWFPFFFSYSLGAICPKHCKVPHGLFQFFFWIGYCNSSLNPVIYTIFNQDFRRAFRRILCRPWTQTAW
Procedure, shortened: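 Membranes from CHO-K1 cells expressing human recombinant α2B, in 50 mM Tris-HCl pH 7.4, 12.5 mM MgCl2, 1 mM EDTA, 0.2% BSA, incubated with compound and 2.5 nM [3H]Rauwolscine, 60 min, 25 °C.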

[2] = biological target: T2, human recombinant adrenergic α2A receptor (Homo sapiens, UniProt P08913); experiment: Radioligand binding, adrenergic α2A ([3H]MK-912); conditions: for Percentage inhibition of ligand binding, Adrenergic α2A (0.1 μM) / Percentage inhibition of ligand binding, Adrenergic α2A: 0.1 µM
T2 construct: expressed in transfected cells; host or cells: insect Sf9 cells
T2 sequence (P08913 1-465): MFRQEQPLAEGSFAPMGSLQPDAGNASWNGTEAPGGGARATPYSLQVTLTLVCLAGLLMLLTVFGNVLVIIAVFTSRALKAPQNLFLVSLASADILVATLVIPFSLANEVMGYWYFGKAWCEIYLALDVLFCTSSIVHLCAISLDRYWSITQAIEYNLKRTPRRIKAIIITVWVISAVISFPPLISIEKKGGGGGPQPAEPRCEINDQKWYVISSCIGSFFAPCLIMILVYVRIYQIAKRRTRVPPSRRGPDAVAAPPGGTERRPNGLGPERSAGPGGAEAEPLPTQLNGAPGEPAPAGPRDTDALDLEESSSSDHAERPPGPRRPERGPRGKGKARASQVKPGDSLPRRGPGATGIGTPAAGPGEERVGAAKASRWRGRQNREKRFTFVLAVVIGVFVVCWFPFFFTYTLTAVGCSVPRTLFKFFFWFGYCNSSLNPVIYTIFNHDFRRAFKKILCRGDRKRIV
Procedure, shortened: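 Displacement of 1 nM [3H]MK-912 from receptor produced in insect Sf9 cells was measured after 60 min at 25 °C. Readout: percent inhibition of specific binding.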

[3] = biological target: T3, rat adrenergic α1B receptor (Rattus norvegicus, UniProt P15823); experiment: Radioligand binding, adrenergic α1B ([3H]Prazosin); conditions: for Percentage inhibition of ligand binding, Adrenergic α1B / Percentage inhibition of ligand binding, Adrenergic α1B (0.1 μM): 0.1 µM
T3 construct: rat adrenergic α1B receptor obtained from Wistar Rat liver; from tissue; host or cells: Wistar rat liver
T3 sequence (P15823 1-515): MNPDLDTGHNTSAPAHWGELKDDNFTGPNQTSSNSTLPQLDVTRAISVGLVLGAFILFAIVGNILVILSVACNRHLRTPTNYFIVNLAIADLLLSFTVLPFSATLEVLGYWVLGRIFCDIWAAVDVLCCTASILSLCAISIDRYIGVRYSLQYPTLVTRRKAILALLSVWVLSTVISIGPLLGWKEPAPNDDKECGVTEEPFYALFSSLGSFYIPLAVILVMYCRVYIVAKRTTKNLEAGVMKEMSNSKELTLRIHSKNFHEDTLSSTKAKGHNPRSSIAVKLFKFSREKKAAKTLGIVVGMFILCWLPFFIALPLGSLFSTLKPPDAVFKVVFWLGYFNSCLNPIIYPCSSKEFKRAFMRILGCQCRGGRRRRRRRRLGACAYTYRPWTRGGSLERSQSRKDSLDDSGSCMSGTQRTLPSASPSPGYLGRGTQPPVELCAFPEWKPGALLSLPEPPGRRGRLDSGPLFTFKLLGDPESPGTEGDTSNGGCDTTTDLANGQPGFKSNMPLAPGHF
Procedure, shortened: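 Rat α1B receptor from Wistar rat liver was incubated with 0.25 nM [3H]prazosin for 60 min at 25 °C in 50 mM Tris-HCl, pH 7.4, 0.5 mM EDTA. Non-specific binding was defined with 10 μM phentolamine. Bound radioligand was measured by filtration and counting, reported as percent inhibition of specific binding.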

[4] = compound at 0.03 μM, [3H]Rauwolscine, repeat assays, each datapoint shown, read-out: Percentage inhibition of ligand binding, Adrenergic α2B
[5] = compound at 0.1 μM, [3H]MK-912, repeat assays, each datapoint shown, read-out: Percentage inhibition of ligand binding, Adrenergic α2A
[6] = compound at 0.1 μM, [3H]Prazosin, repeat assays, each datapoint shown, read-out: Percentage inhibition of ligand binding, Adrenergic α1B
[7] = read-out: Percentage inhibition of ligand binding, Adrenergic α2B (0.03 μM), compound at 0.03 μM, [3H]Rauwolscine, repeat datapoints each shown
[8] = compound at 0.1 μM, [3H]MK-912, repeat datapoints each shown
[9] = read-out: Percentage inhibition of ligand binding, Adrenergic α1B (0.1 μM), compound at 0.1 μM, [3H]Prazosin, repeat datapoints each shown
[10] = compound at 0.03 μM, [3H]Rauwolscine, repeat assays, each datapoint shown
[11] = compound at 0.1 μM, [3H]MK-912, repeat assays, each datapoint shown
[12] = compound at 0.1 μM, [3H]Prazosin, repeat assays, each datapoint shown
[13] = compound at 0.03 μM, [3H]Rauwolscine, repeat datapoints each shown
[14] = compound at 0.1 μM, [3H]Prazosin, repeat datapoints each shown

CN1CCc2c(n(CC(O)c3cccnc3)c3ccc(Cl)cc23)C1 (centres unmarked) [II-87]
inhibition at 0.03 µM ([1]; 0.03 μM compound, read-out: Percentage inhibition of ligand binding, Adrenergic α2B): 24% | inhibition at 0.1 µM ([2]; 0.1 μM compound, read-out: Percentage inhibition of ligand binding, Adrenergic α2A): 1% | inhibition at 0.1 µM ([3]; 0.1 μM compound, read-out: Percentage inhibition of ligand binding, Adrenergic α1B): 11%

Cc1ccc2c(c1)c1c(n2CC(O)c2cccnc2)CCN(C)C1 (centres unmarked) [compound 62]
inhibition at 0.03 µM [1, 4]: 76% | inhibition at 0.1 µM [2, 5]: 1% | inhibition at 0.1 µM [3, 6]: 16%

Cc1ccc2c(c1)c1c(n2CC(C)(O)c2cccnc2)CCN2CCCC12 (single isomer, unassigned) [II-127a, 1-(9-methyl-1,2,3,4,5,10c-hexahydro-3a,6-diaza-cyclopenta[c]fluoren-6-yl)-2-pyridin-3-yl-propan-2-ol]
inhibition at 0.03 µM [1, 7]: 105% | Percentage inhibition of ligand binding, Adrenergic α2A (0.1 μM) [2, 8]: 79% | inhibition at 0.1 µM [3, 9]: 83%

COc1cccc2c3c(n(CC(O)c4ccncc4)c12)CCN(C)C3 (single isomer, unassigned) [44a, 2-(6-methoxy-2-methyl-3,4-dihydro-1H-pyrido[4,3-b]indol-5(2H)-yl)-1-(pyridin-4-yl)ethanol]
Percentage inhibition of ligand binding, Adrenergic α2B [1, 10]: 33% | Percentage inhibition of ligand binding, Adrenergic α2A [2, 11]: 11% | Percentage inhibition of ligand binding, Adrenergic α1B [3, 12]: 12%

CC(O)(Cn1c2c(c3cc(Cl)ccc31)C1CCCN1CC2)c1cccnc1 (single isomer, unassigned) [II-130b, 1-(10-chloro-2,3,5,6-tetrahydro-1H-indolizino[7,8-b]indol-7(11cH)-yl)-2-(pyridin-3-yl)propan-2-ol]
Percentage inhibition of ligand binding, Adrenergic α2B (0.03 μM) [1, 13]: 33% | Percentage inhibition of ligand binding, Adrenergic α2A (0.1 μM) [2, 8]: 15% | Percentage inhibition of ligand binding, Adrenergic α1B (0.1 μM) [3, 14]: 3%

Cc1ccc2c(c1)c1c(n2CC(C)(O)c2cccnc2)CC(C)N(C)C1 (single isomer, unassigned) [II-146a, 2-(pyridin-3-yl)-1-(2,3,8-trimethyl-3,4-dihydro-1H-pyrido[4,3-b]indol-5(2H)-yl)propan-2-ol]
Percentage inhibition of ligand binding, Adrenergic α2B (0.03 μM) [1, 13]: 102% | Percentage inhibition of ligand binding, Adrenergic α2A (0.1 μM) [2, 8]: 47% | inhibition at 0.1 µM [3, 9]: 23%

CN1CCc2c(c3ccccc3n2CC(C)(O)c2cccnc2)C1 (single isomer, unassigned) [173a]
Percentage inhibition of ligand binding, Adrenergic α2B (0.03 μM) [1, 13]: 61% and 68% | Ki ([1]; read-out: Ki α2B): 8.77 nM | inhibition at 0.1 µM ([1]; read-out: Percentage inhibition of ligand binding, Adrenergic α2B (0.1 μM), compound at 0.1 μM, [3H]Rauwolscine, repeat datapoints each shown): 82% | Percentage inhibition of ligand binding, Adrenergic α2A (0.1 μM) [2, 8]: 15% | inhibition at 0.1 µM [3, 9]: 5%

C/C(=C/n1c2c(c3cc(C)ccc31)CN(C)CC2)c1cn[nH]c1 [compound 80]
inhibition at 0.03 µM [1, 4]: 81% | inhibition at 0.1 µM [2, 5]: 12% | inhibition at 0.1 µM [3, 6]: 49%

CN1CCc2c(c3ccc(Cl)cc3n2CC(O)c2ccncc2)C1 (single isomer, unassigned) [53a, 2-(7-chloro-2-methyl-3,4-dihydro-1H-pyrido[4,3-b]indol-5(2H)-yl)-1-(pyridin-4-yl)ethanol]
Percentage inhibition of ligand binding, Adrenergic α2B [1, 10]: 37% | inhibition at 0.1 µM [2, 5]: 10% | inhibition at 0.1 µM [3, 6]: 12%

CN1CCc2c(c3cc(C(C)(C)O)ccc3n2CC(O)c2ccncc2)C1 (single isomer, unassigned) [23b, 2-(2,3,4,5-tetrahydro-5-(2-hydroxy-2-(pyridin-4-yl)ethyl)-2-methyl-1H-pyrido[4,3-b]indol-8-yl)propan-2-ol]
Percentage inhibition of ligand binding, Adrenergic α2B [1, 10]: −3% | Percentage inhibition of ligand binding, Adrenergic α2A [2, 11]: 1% | Percentage inhibition of ligand binding, Adrenergic α1B [3, 12]: 4%

Cc1ccc2c(c1)c1c(n2CC(O)c2ccccn2)CN(C)CC1 (single isomer, unassigned) [22a]
inhibition at 0.03 µM [1, 4]: 22% | Percentage inhibition of ligand binding, Adrenergic α2A [2, 11]: 16% | Percentage inhibition of ligand binding, Adrenergic α1B [3, 12]: 19%

Cc1cnc2c(c1)c1c(n2CC(N=[N+]=[N-])c2ccncc2)CCN(C)C1 (centres unmarked) [V-2, 9-(2-azido-2-(pyridin-4-yl)ethyl)-3,6-dimethyl-6,7,8,9-tetrahydro-5H-pyrrolo[2,3-b:4,5-c′]dipyridine]
inhibition at 0.03 µM [1, 7]: 61% | inhibition at 0.1 µM ([2]; read-out: Percentage inhibition of ligand binding, Adrenergic α2A (0.1 μM), compound at 0.1 μM, [3H]MK-912, repeat datapoints each shown): 2% | inhibition at 0.1 µM [3, 9]: 49%

Cc1cnc2c(c1)c1c(n2CCc2cnc(C)nc2)CCN2CCCC12 (single isomer, unassigned) [IV-93a]
inhibition at 0.03 µM [1, 7]: 52% | Percentage inhibition of ligand binding, Adrenergic α2A (0.1 μM) [2, 8]: 18% | Percentage inhibition of ligand binding, Adrenergic α1B (0.1 μM) [3, 14]: 7%

Cc1ccc2c(c1)c1c(n2CC(O)c2ccccc2F)CN(C)CC1 (single isomer, unassigned) [II-49b, 2-(2,6-dimethyl-3,4-dihydro-1H-pyrido[3,4-b]indol-9(2H)-yl)-1-(2-fluorophenyl)ethanol]
Percentage inhibition of ligand binding, Adrenergic α2B ([1]; 0.03 μM compound): 50% | Percentage inhibition of ligand binding, Adrenergic α2A ([2]; 0.1 μM compound): 18% | Percentage inhibition of ligand binding, Adrenergic α1B ([3]; 0.1 μM compound): 69%

Cc1ccc2c(c1)c1c(n2CC(C)(O)c2cccnc2)CN(C)CC1 (stereo not drawn) [14b, 1-(2,6-dimethyl-1,2,3,4-tetrahydro-β-carbolin-9-yl)-2-pyridin-3-yl-propan-2-ol]
inhibition at 0.03 µM [1, 4]: 14% | inhibition at 0.1 µM [2, 5]: -6% | inhibition at 0.1 µM [3, 6]: 25%

CN1CCc2c(c3ccccc3n2CC(C)(O)c2cccnc2)C1 (single isomer, unassigned) [173b]
Percentage inhibition of ligand binding, Adrenergic α2B (0.03 μM) [1, 13]: 28% | Percentage inhibition of ligand binding, Adrenergic α2A (0.1 μM) [2, 8]: −2% | Percentage inhibition of ligand binding, Adrenergic α1B (0.1 μM) [3, 14]: 8%
